pEC50: −log10 of the molar value. In brackets after ≈: the same amount, converted by molar mass.
Key:
[1] = target: T1, Nuclear receptor ROR-beta (Homo sapiens, UniProt Q92753); assay: Inverse agonist activity at RORbeta (unknown origin)
T1 sequence (Q92753 whole entry): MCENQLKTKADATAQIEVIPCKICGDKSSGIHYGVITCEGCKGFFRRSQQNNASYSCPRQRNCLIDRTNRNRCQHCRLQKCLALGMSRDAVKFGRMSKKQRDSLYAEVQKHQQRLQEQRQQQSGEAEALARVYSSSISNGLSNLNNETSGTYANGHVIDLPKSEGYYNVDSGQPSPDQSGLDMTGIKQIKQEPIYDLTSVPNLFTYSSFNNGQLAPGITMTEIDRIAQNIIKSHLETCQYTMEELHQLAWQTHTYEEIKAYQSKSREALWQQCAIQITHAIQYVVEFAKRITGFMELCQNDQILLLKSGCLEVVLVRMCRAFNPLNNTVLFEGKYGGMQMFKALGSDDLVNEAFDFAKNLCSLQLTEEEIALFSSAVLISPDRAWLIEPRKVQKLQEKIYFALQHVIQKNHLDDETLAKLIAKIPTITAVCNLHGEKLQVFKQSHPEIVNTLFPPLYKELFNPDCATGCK

[2] = target: T2, Nuclear receptor ROR-gamma (Mus musculus, UniProt P51450); assay: Inverse agonist activity at RORgamma in C57BL/6 mouse splenocytes assessed as reduction of IL-17 production after 2 days by ELISA; assay type: cell-based
T2 sequence (P51450 whole entry): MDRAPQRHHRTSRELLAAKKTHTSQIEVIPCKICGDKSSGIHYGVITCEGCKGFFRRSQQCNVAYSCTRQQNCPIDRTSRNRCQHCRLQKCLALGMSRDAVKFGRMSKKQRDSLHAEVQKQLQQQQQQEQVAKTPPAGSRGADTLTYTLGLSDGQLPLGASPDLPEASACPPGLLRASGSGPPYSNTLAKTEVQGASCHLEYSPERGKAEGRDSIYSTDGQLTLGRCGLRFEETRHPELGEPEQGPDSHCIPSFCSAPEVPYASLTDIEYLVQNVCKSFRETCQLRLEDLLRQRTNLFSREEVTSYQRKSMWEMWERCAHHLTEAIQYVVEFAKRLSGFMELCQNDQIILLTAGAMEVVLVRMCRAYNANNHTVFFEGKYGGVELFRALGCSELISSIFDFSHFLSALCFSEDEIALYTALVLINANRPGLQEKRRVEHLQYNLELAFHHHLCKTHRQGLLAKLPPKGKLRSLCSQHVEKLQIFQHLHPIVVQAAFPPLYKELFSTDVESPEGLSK

[3] = target: T3, Nuclear receptor ROR-alpha (Homo sapiens, UniProt P35398); assay: Inverse agonist activity at RORalpha (unknown origin)
T3 sequence (P35398 whole entry): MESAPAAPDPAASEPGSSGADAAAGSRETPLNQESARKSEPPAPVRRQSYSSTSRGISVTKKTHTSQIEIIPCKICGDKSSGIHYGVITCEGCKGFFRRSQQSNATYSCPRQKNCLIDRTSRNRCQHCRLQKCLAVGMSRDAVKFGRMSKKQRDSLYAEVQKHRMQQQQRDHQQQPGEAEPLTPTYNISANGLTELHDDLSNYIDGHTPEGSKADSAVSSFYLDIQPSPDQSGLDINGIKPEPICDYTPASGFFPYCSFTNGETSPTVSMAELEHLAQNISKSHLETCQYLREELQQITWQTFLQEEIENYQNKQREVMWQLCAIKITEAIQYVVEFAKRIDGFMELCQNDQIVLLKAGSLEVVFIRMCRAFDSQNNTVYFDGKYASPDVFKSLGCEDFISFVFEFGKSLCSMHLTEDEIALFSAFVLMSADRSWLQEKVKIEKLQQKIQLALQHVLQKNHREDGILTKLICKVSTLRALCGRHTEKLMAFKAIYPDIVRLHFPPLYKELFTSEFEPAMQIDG

[4] = target: T4, Nuclear receptor subfamily 1 group I member 2 (Homo sapiens, UniProt O75469); assay: Activation of PXR (unknown origin)
T4 sequence (O75469 whole entry): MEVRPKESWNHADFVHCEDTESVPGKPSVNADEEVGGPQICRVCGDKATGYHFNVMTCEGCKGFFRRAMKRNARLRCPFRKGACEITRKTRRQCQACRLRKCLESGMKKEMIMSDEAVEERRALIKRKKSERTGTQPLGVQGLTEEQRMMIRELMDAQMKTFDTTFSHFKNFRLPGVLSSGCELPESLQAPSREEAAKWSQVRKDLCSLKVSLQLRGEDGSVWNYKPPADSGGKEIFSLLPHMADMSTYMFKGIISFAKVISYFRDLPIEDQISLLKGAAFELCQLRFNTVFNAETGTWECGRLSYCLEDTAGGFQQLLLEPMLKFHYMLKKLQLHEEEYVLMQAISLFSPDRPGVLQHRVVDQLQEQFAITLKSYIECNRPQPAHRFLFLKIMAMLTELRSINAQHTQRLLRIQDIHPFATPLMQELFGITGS

[5] = Percentage unbound in rat plasma; assay type: ADME, cell-free
[6] = Percentage unbound in human plasma; assay type: ADME, cell-free
[7] = Kinetic aqueous solubility of the compound; assay type: physicochemical; conditions: buffer; read-out: Kinetic_solubility

SMILES | pEC50 [1] | pEC50 [2] | pEC50 [3] | pEC50 [4] | fraction unbound [5] | fraction unbound [6] | solubility kinetic [7] [µg/mL]
[2H]C([2H])([2H])N(C(=O)c1c(F)cccc1Cl)c1ccc(-c2cc(NC(C)=O)nn2C(C)C)cc1OCC1CCC1 | 6.05 | 5.51 | 5.92 | < 5.00 |  |  | 
CC(=O)Nc1nc(C(C)C)c(-c2cnc(N(C)C(=O)c3c(F)cccc3Cl)c(N3CCCCC3)c2)s1 | 6.10 |  | 5.66 | 6.40 | 0.002 | 0.003 | 0.3 (≈ 0.566 µM)
[2H]C([2H])([2H])N(C(=O)c1c(F)cccc1Cl)c1ccc(-c2cc(NC(=O)CO)nn2C(C)C)cc1N1CC2CC2C1 (centres undefined) |  | 6.92 |  |  |  |  | 
[2H]C([2H])([2H])N(C(=O)c1c(C)cccc1F)c1ccc(-c2cc(NC(C)=O)nn2C(C)C)cc1N1CC2CC2C1 (centres undefined) | 5.82 | 6.45 | 5.70 | < 5.00 | 0.002 | 0.011 | 17 (≈ 34.5 µM)
CC(=O)Nc1cc(-c2ccc(N(C)C(=O)c3c(F)cccc3Cl)c(N3CC4CC4C3)c2)n(C(C)C)n1 (centres undefined) | 5.77 | 6.96 | 5.72 |  | 0.002 | 0.009 | 
[2H]C([2H])([2H])N(C(=O)c1c(F)cccc1Cl)c1ccc(-c2cc(NC(C)=O)nn2C(C)C)cc1OCC(C)C |  |  |  |  | 0.002 | 0.003 | 
[2H]C([2H])([2H])N(C(=O)c1c(F)cccc1Cl)c1ncc(-c2cc(NC(C)=O)nn2C(C)C)cc1N1CC2CC2C1 (centres undefined) | 5.21 |  | < 5.00 | 5.89 | 0.022 | 0.056 | 48 (≈ 93.4 µM)
[2H]C([2H])([2H])N(C(=O)c1c(F)cccc1Cl)c1ccc(-c2cc(NC(=O)C3CC3)nn2C(C)C)cc1N1CC2CC2C1 (centres undefined) |  | 7.06 |  |  |  |  | 
[2H]C([2H])([2H])N(C(=O)c1c(Cl)cccc1Cl)c1ccc(-c2cc(NC(C)=O)nn2C(C)C)cc1N1CC2CC2C1 (centres undefined) | 6.22 | 7.14 | 5.82 | 6.30 | 0.001 | 0.004 | 0.8 (≈ 1.51 µM)
[2H]C([2H])([2H])N(C(=O)c1c(F)cccc1Cl)c1ccc(-c2cc(NC(C)=O)nn2CC(C)(C)C)cc1N1CC2CC2C1 (centres undefined) |  |  |  |  |  |  | 0.8 (≈ 1.48 µM)
[2H]C([2H])([2H])N(C(=O)c1c(F)cccc1Cl)c1ccc(-c2cc(NC(C)=O)nn2C2CCC2)cc1N1CC2CC2C1 (centres undefined) |  | 6.70 |  |  | 0.0004 | 0.003 | 0.5 (≈ 0.952 µM)
[2H]C([2H])([2H])N(C(=O)c1c(F)cccc1Cl)c1ccc(-c2cnn(C)c2C(C)C)cc1OCC(F)(F)F |  | 6.09 |  |  | 0.006 | 0.009 | < 0.1
[2H]C([2H])([2H])N(C(=O)c1c(F)cccc1Cl)c1ccc(-c2cc(NC(C)=O)nn2C(C)C)cc1OCC(F)(F)F |  |  |  |  |  |  | 27 (≈ 50.9 µM)
[2H]C([2H])([2H])N(C(=O)c1c(F)cccc1Cl)c1ccc(-c2cc(NC(C)=O)nn2C(C)C)cc1N1CCCCC1 | 6.10 | 7.96 | 5.96 | < 5.00 | 0.001 | 0.004 | 1.3 (≈ 2.52 µM)
[2H]C([2H])([2H])N(C(=O)c1c(F)cccc1Cl)c1ccc(-c2cc(NC(C)=O)nn2CC2CC2)cc1N1CC2CC2C1 (centres undefined) | 5.74 | 6.70 | 5.74 | 5.06 | 0.002 | 0.005 | 10.1 (≈ 19.2 µM)
[2H]C([2H])([2H])N(C(=O)c1c(F)cccc1Cl)c1ccc(-c2cc(NC(=O)[C@H]3C[C@H](O)C3)nn2C(C)C)cc1N1CC2CC2C1 (some centres undefined) |  | 6.87 |  |  |  |  | 
[2H]C([2H])([2H])N(C(=O)c1c(F)cccc1Cl)c1ccc(-c2cc(C(N)=O)nn2C(C)C)cc1OCC(F)(F)F |  | 5.70 |  |  | 0.031 | 0.059 | 32 (≈ 62 µM)
[2H]C([2H])([2H])N(C(=O)c1c(F)cccc1Cl)c1ccc(-c2cc(NC(=O)CC)nn2C(C)C)cc1N1CC2CC2C1 (centres undefined) |  | 7.48 |  |  |  |  | 
[2H]C([2H])([2H])N(C(=O)c1c(F)cccc1Cl)c1ccc(-c2cc(NC(C)=O)nn2C(C)C)cc1N1CCCC1 | 6.00 |  | 5.85 | 6.10 | 0.009 | 0.017 | 12 (≈ 24 µM)
[2H]C([2H])([2H])N(C(=O)c1c(F)cccc1Cl)c1ccc(-c2cc(NC(=O)N3CC4(COC4)C3)nn2C(C)C)cc1N1CC2CC2C1 (centres undefined) |  | 6.83 |  |  |  |  | 
[2H]C([2H])([2H])N(C(=O)c1c(F)cccc1Cl)c1ccc(-c2cc(NC(C)=O)nn2C(C)C)cc1-c1ccccc1 | 5.96 |  | 5.68 | < 5.00 | 0.004 | 0.004 | 
[2H]C([2H])([2H])N(C(=O)c1c(F)cccc1Cl)c1ccc(-c2cc(NC(C)=O)nn2C2CCCC2)cc1N1CC2CC2C1 (centres undefined) | 5.89 | 7.22 | 5.89 | 6.30 | < 0.0005 | 0.002 | 0.1 (≈ 0.186 µM)
[2H]C([2H])([2H])N(C(=O)c1c(F)cccc1Cl)c1ccc(-c2cc(NC(=O)[C@H]3C[C@@H](O)C3)nn2C(C)C)cc1N1CC2CC2C1 (some centres undefined) |  | 6.87 |  |  |  |  | 
[2H]C([2H])([2H])N(C(=O)c1c(F)cccc1Cl)c1ccc(-c2cc(NC(C)=O)nn2C(C)C2CC2)cc1N1CC2CC2C1 (centres undefined) | 5.89 |  | 5.03 | 6.05 |  |  | 0.5 (≈ 0.928 µM)
[2H]C([2H])([2H])N(C(=O)c1c(F)cccc1Cl)c1ccc(-c2cc(NC(=O)NC)nn2C(C)C)cc1N1CC2CC2C1 (centres undefined) |  | 6.45 |  |  |  |  | 

From ChEMBL document CHEMBL3596090, “Discovery of novel pyrazole-containing benzamides as potent RORγ inverse agonists” (Bioorg Med Chem Lett, 2015)
